Source: the OPERA property sets (Mansouri et al. 2018)

Which logP does the source give for CNC(=O)N(CCCC(NC(C)=O)C(=O)NCc1ccccc1)Cc1ccccc1 (configuration not stated) here?
The logP was 1.86.

For CCc1ccc(CO)cc1, which logP is on record?
Its logP is 2.27.

Which logP does the source give for O=c1[nH]c2ccccc2n1C1CCNCC1 here?
The logP was 1.14.

For CCCN(CCCl)c1c([N+](=O)[O-])cc(C(F)(F)F)cc1[N+](=O)[O-], which logP is on record?
Its logP is 4.63.

With Cc1cc2cc3c(C)cc(=O)oc3c(C)c2o1 as the compound, how does the logP read?
The logP was 3.14.

For CCc1cccc(OC(=O)N(C)C)c1, which logP is on record?
The logP was 2.47.

Which logP does the source give for COC(=O)C(C)c1ccc(-n2sc3ccccc3c2=O)cc1 (configuration not stated) here?
Its logP is 3.46.

For COc1cccc(OC)c1C(=O)Nc1nnc(-c2ccc(F)cc2)s1, which logP is on record?
Its logP is 3.5.

Which logP does the source give for CCOC(=O)NC1CCc2cc(OC)c(OC)c(OC)c2-c2ccc(OC)c(=O)cc21 (configuration not stated) here?
The logP was 2.3.

With CCc1ccc(OC(=O)N(C)C)cc1 as the compound, how does the logP read?
Its logP is 2.55.

Which logP does the source give for CN(C)C(=O)Oc1cccc(F)c1 here?
The logP was 1.75.

Which logP does the source give for O=[N+]([O-])C=C1CCCN1Cc1ccc(Cl)nc1 here?
The logP was 0.68.

Which logP does the source give for CC(=O)CC(=O)Nc1n[n+]([O-])c2ccccc2[n+]1[O-] here?
Its logP is -1.4.

Which logP does the source give for CCN(CCO)C(=O)COC(=O)Cc1ccc2cc(OC)ccc2c1 here?
Its logP is 1.98.

For Cc1ccccc1S(=O)(=O)N1C(=O)NC(=O)C1(c1ccccc1)c1ccccc1, which logP is on record?
The logP was 4.

Which logP does the source give for CN(C)C(=O)Oc1cccc(N(C)C)c1 here?
Its logP is 1.93.

With COc1ccc2cc(CC(=O)OCC(=O)NC3CCCCC3)ccc2c1 as the compound, how does the logP read?
The logP was 3.99.

Which logP does the source give for COc1cccc(OC)c1C(=O)Nc1nnc(-c2ccc(C)cc2)s1 here?
Its logP is 3.85.

With C#CCOc1cc(NC=NOCC)cc(F)c1OCC#C as the compound, how does the logP read?
The logP was 2.1.

Which logP does the source give for Cc1ccnc(N)c1 here?
The logP was 0.56.

Which logP does the source give for CCOc1ccc(NC(=O)OCCF)cc1OCC here?
The logP was 2.27.

With C=CCN1CCCN(CC=C)C1=S as the compound, how does the logP read?
The logP was 2.08.

With CC12CCC(CC1=O)C2(C)C (configuration not stated) as the compound, how does the logP read?
Its logP is 2.38.

With C=CCN(N=O)C(=O)N(CCC)CCCC(NC(C)=O)C(=O)NCc1ccccc1 (configuration not stated) as the compound, how does the logP read?
Its logP is 2.16.

Which logP does the source give for CCOc1ccccc1NC(=O)OC1CCCCC1CN(C)C (configuration not stated) here?
The logP was 4.14.

With CCOc1ccc(NC(=O)OC(C)CF)cc1OCC (configuration not stated) as the compound, how does the logP read?
Its logP is 2.59.

For C=CC(CC)OC(=O)Nc1ccc(OCC)c(OCC)c1 (configuration not stated), which logP is on record?
The logP was 3.42.

For Nc1n[n+]([O-])c2ccc(Cl)cc2[n+]1[O-], which logP is on record?
The logP was 0.41.

Which logP does the source give for CCCN1CCN(CCC)C1=S here?
The logP was 1.86.

Which logP does the source give for COP(=O)(CC(C)=O)OC here?
Its logP is -0.86.

Which logP does the source give for CCC(C(=O)OC)c1ccc(-n2sc3ccccc3c2=O)cc1 (configuration not stated) here?
The logP was 3.91.

For Cc1cc[n+]([O-])cc1, which logP is on record?
Its logP is -0.88.

For CCOc1ccc(NC(=O)OC(C)COC)cc1OCC (configuration not stated), which logP is on record?
The logP was 2.56.

With CCC(C(N)=O)c1ccc(-n2sc3ccccc3c2=O)cc1 (configuration not stated) as the compound, how does the logP read?
The logP was 2.58.

With [O-][n+]1ccc(Cl)cc1 as the compound, how does the logP read?
Its logP is -0.44.

With NC(=O)Cc1ccc(-n2sc3ccccc3c2=O)cc1 as the compound, how does the logP read?
The logP was 1.72.

Which logP does the source give for CNC(=O)NCCCCC(NC(C)=O)C(=O)NCc1ccccc1 (configuration not stated) here?
Its logP is 0.06.

With CC(=O)Nc1n[n+]([O-])c2cc(C)ccc2[n+]1[O-] as the compound, how does the logP read?
Its logP is -0.4.

With Cc1ccc2c(c1)[n+]([O-])nc(N)[n+]2[O-] as the compound, how does the logP read?
The logP was 0.2.

Which logP does the source give for COC(=O)c1ccc(-n2sc3ccccc3c2=O)cc1 here?
The logP was 3.49.

For C#CCOc1cc(NC=NOCOC)cc(F)c1OCC#C, which logP is on record?
Its logP is 1.7.

Which logP does the source give for C=CCNC(=O)N(CCC)CCCC(NC(C)=O)C(=O)NCc1ccccc1 (configuration not stated) here?
The logP was 1.21.
